± gives the expanded uncertainty stated by the source.
What was measured:
[1] = 298.15 K; 101.33 kPa; Liquid; Vibrating tube method
[2] = refractive index (Na D-line) (dimensionless); settings: 298.15 K; 101.33 kPa; Liquid; Standard Abbe refractometry

Row | Compound | mass density [1] | refractive index [2]
1 | CC(C)O [propan-2-ol] | 781.18 ± 0.15 kg/m3 | 1.3752 ± 0.00032
2 | OCCCO [propan-1,3-diol] | 1049.68 ± 0.14 kg/m3 | 1.43851 ± 0.00032
3 | O [water] |  | 1.33237 ± 0.00032

Reference: the NIST ThermoML archive (doi:10.1016/j.fluid.2014.02.006)
